# Activity calls are given as the source filed them. Cut-off read from the data, not from the text of the source, for most assays here: actives have a measured EC50 and inactives only a lower limit.
# Columns and labels:
# [1] = biological target: T1, Corticotropin-releasing factor receptor 2/Corticotropin-releasing factor-binding protein (Homo sapiens, UniProt P24387+Q13324); assay: Dose Response confirmation of uHTS hits for small molecule antagonists of the CRF-binding protein and CRF-R2 receptor complex.; format: functional; conditions: read-out: IC50_Mean
# T1 sequence (Q13324 whole entry): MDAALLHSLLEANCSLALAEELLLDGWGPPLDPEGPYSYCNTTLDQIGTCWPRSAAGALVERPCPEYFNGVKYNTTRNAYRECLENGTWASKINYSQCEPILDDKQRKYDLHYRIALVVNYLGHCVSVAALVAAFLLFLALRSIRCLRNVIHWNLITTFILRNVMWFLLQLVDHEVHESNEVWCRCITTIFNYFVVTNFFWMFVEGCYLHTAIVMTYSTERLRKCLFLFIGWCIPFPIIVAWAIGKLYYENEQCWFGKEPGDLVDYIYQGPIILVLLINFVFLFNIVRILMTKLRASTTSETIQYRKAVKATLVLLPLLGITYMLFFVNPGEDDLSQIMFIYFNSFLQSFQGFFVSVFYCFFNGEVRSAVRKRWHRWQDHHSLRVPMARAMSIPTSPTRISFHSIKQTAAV
# T1 sequence (P24387 whole entry): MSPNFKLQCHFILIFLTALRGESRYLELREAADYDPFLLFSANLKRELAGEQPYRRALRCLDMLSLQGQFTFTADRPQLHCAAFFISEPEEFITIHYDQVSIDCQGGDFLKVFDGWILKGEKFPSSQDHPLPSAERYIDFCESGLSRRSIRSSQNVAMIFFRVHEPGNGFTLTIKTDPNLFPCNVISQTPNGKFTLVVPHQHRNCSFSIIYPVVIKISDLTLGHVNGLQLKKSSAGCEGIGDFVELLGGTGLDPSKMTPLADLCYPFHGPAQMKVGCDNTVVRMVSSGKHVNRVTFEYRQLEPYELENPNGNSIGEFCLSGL
# [2] = biological target: T1, Corticotropin-releasing factor receptor 2/Corticotropin-releasing factor-binding protein; assay: activators of CRF receptor 2 with binding protein – uHTS hits, confirmation (AID 602473); format: functional; conditions: read-out: EC50_Mean
# [3] = CRF-BP/CRF-R2 complex antagonists, dose response, cell-based, uHTS hits, 384-well (AID 651639); format: functional, Homo sapiens; conditions: read-out: IC50_Mean
# BJ [4] = assay: cytotoxicity toward BJ-TERT fibroblasts, dose response, cell-based, RAS-independent, luminescence (AID 1933); format: functional; conditions: Homo sapiens
# BJ [5] = assay: cells; format: functional, cell-based; conditions: Homo sapiens
# BJ [6] = assay: cytotoxicity toward BJ-TERT-LT-ST fibroblasts, dose response, cell-based, RAS-independent, luminescence (AID 1935); format: functional; conditions: Homo sapiens;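 note: BJ fibroblasts immortalized with TERT plus LT and ST oncogenes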
# [7] = cytotoxicity toward DRD oncogenic fibroblasts, dose response, cell-based, non-viral oncogenic, luminescence (AID 1934); format: functional; conditions: Homo sapiens
# BJ [8] = assay: cytotoxicity toward Ras-transformed BJeLR fibroblasts, dose response, cell-based, alamar blue fluorescence, cherrypicked samples (AID 2631); format: functional; conditions: Homo sapiens;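 note: confirmatory dose-response assay in RAS-dependent BJ fibroblasts engineered with TERT, LT and ST, with cytotoxicity read by fluorescence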
# [9] = biological target: T2, Probable nicotinate-nucleotide adenylyltransferase (Staphylococcus aureus (strain N315), UniProt P65502); format: functional, Staphylococcus aureus subsp. aureus N315;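 for IC50 Mean: confirmatory dose-response retesting of NadD inhibitor hits first found in an ultra-high-throughput screen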
# T2 sequence (P65502 whole entry): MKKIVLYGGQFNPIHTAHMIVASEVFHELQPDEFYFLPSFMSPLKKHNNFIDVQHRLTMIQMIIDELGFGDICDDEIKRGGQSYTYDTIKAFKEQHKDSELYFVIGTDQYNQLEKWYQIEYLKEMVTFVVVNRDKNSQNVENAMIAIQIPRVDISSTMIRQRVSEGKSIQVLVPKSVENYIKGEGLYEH
# [10] = biological target: T2, Probable nicotinate-nucleotide adenylyltransferase; format: functional, Staphylococcus aureus subsp. aureus N315; conditions: read-out: IC50_Mean
smiles,measurement,setting,value
COC(=O)c1cc(C#N)c(NCc2ccccc2)nc1C,IC50,[1],8.02 µM (active)
same,EC50,[2],> 53 µM (inactive)
same,IC50,[3],> 20 µM (inactive)
CCC(=O)N(Cc1c(C)nn(-c2ccccc2)c1Cl)c1ccc(Cl)cc1,IC50,[1],7.02 µM (active)
same,EC50,[2],> 53 µM (inactive)
same,IC50,[3],19.8 µM (active)
COc1ccc(NC(=O)CN(C)S(=O)(=O)c2ccc3nc(O)oc3c2)cc1,EC50,BJ [4],> 150 µM (not active)
same,EC50,BJ [5],> 150 µM (not active)
same,EC50,BJ [6],47.8 µM (active)
same,EC50,[7],> 150 µM (not active)
same,EC50,BJ [8],> 133 µM (inactive)
N#C/C(=C/c1cn(-c2ccccc2)nc1-c1cccc(S(=O)(=O)N2CCCC2)c1)C(=O)NCc1ccco1,IC50,[9],14.4 µM (active)
same,IC50,[10],50.1 µM (active)
